Among the data in PubChem BioAssay AID1963829 (Molecular Pharmacology Branch, DTP, NCI, 2024) are IC50 and viability, T/C values, retold here.

Each structure is given as a SMILES string. Several values for one entry are separate records, joined by “and”; a condition that tells them apart may be missing. Equal values may be shown once.

The test relates to 935938-334-R-J1-PDC complex spheroid viability. In words: Anticancer human tumor 935938-334-R-J1-PDC patient-derived small intestine adenocarcinoma cell line growth inhibition [POLQ]. Particulars: for viability, T/C: stronger effect = lower value. As to the method:
Multicellular complex tumor spheroid response to Polymerase (POL) inhibitors (novobiocin, ART-558, RP6685) in combination with a variety of drugs and investigational agents in selected tumor cell lines
The POL inhibitors (novobiocin, ART-558, and RP6685) were evaluated both individually and in combination with standard of care and investigational anticancer small molecules within a complex spheroid model of solid tumors. . Complex spheroids include a stromal component modeled by human endothelial cells (HUVEC) and fibroblasts modeled by human mesenchymal stem cells (MSCs). The concentration ranges selected for each drug and investigational agent were based upon clinically achievable concentrations if the clinical Cmax of the agent was known.
Compounds. The drugs and investigational agents: novobiocin (NSC847541), ART-558 (NSC835418), RP-6685 (NSC848927), peposertib (NSC802822), ceralasertib (NSC780249), elimusertib (NSC800525), camonsertib (NSC841442), AZD-1390 (NSC803789), olaparib (NSC753686), talazoparib (NSC767125), rucaparib (NSC756644), sotorasib (NSC818433), MRTX-1133 (NSC836407), SN-38 (NSC673596), topotecan (NSC609699), epotoside (NSC141540), doxorubicin (NSC123127), gemcitabine (NSC613327), 5-fluorouracil (NSC19893), paclitaxel (NSC125973), vemurafenib (NSC761431), MSA-2 (NSC828583), SN-011 (NSC837082), adavosertib (NSC754352), prexasertib (NSC758257), carboplatin (NSC241240) and oxaliplatin (NSC266046), were obtained from the National Cancer Institute (NCI) Developmental Therapeutics Program Chemical Repository (21). The FDA-approved anticancer drug set is available from the Developmental Therapeutics Program at https://dtp.cancer.gov/organization/dscb/obtaining/. […] The stock solutions were prepared in dimethyl sulfoxide (DMSO, Sigma-Aldrich, St. Louis, MO, cat. D2650), except for the platinum compounds which were prepared in saline (Quality Biological, Gaithersburg, MD, cat. 114-055-101), at 800-fold the tested concentration and stored at -70 degrees C prior to their use. All drugs and investigational agents were tested over a range starting from a high concentration at or near the clinical Cmax and decreasing in half-log increments. If the clinical Cmax for an agent had not been determined, the highest concentration tested was 10 microM, except for SN-38, which was tested at a high concentration of 1 microM.
Cell Culture. All cells were maintained in an incubator at 37 degrees C and 5% CO2 with 95% humidity. The PDC lines were cultured according to standard operating procedures established by the NCI PDMR (https://pdmr.cancer.gov). Table 3 of the manuscript, lists the cell lines along with the number of the three cell types plated to form the mct-spheroids and media for tumor cell growth. After thawing, all PDC lines, except 997537-175-T-J1-PDC and 415267-285-R-J2-PDC, were cultured in Matrigel-coated flasks prepared with a working solution of 1X Ham's F-12 nutrient mix, without supplementation (Thermo Fisher Scientific, cat. 11765054), 100 U/mL penicillin-streptomycin (Thermo Fisher Scientific, cat. 15140122), and 2.5% Matrigel (Corning Inc., Corning, NY, cat. 354248) for the first three passages. The two PDC lines 997537-175-T-J1-PDC and 415267-285-R-J2-PDC were cultured on uncoated flasks. The 857933-349-R-J2-PDC line was cultured in 6C/Colon 1B media containing advanced DMEM/F-12 (Thermo Fisher Scientific, cat. 12634028), 10 mM HEPES (Thermo Fisher Scientific, cat. 15630080), 1X GlutaMAX supplement (Thermo Fisher Scientific, cat. 35050061), 0.1 mg/mL primocin (InvivoGen, San Diego, CA, cat. ant-pm-2), 10% defined fetal bovine serum, heat inactivated (HyClone Laboratories Inc., Logan, UT, cat. SH30070.03HI), 50% L-WRN conditioned media (ATCC, cat. CRL-3276), 1.25 mM N-Acetyl-L-cysteine (Sigma-Aldrich, cat. A9165), 10 mM nicotinamide (Sigma-Aldrich, cat. N0636), 1X B-27 supplement (Thermo Fisher Scientific, cat. 17504044), 1X N-2 supplement (Thermo Fisher Scientific, cat. […]
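Further: spheroids exposed to drugs for seven days before viability read.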
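Wherever viability, T/C is given: 100% = DMSO vehicle control wells.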

In the case of `CCCS(=O)(=O)Nc1ccc(F)c(C(=O)c2c[nH]c3ncc(-c4ccc(Cl)cc4)cc23)c1F` + Cc1cccc(N(C)C(=O)C2C(O)CCN2c2nc(C)cc(C(F)(F)F)c2C#N)c1, the IC50 runs as follows: (curve of first compound, second compound 0.0316 µM) over 10 µM; (curve of first compound, second compound 0.1 µM) 9.27 µM; (curve of first compound, second compound 0.316 µM) 9.18 µM; (curve of first compound, second compound 1 µM) 9.75 µM; (curve of first compound, second compound 3.16 µM) over 10 µM; (curve of first compound, second compound 10 µM) 9.01 µM. For the same molecule, the viability, T/C (second compound 0.0316 µM, first compound 0.0316 µM) was 85.3%; the viability, T/C (second compound 0.0316 µM, first compound 0.1 µM) was 97.4%; the viability, T/C (second compound 0.0316 µM, first compound 0.316 µM) is 117%; the viability, T/C (second compound 0.0316 µM, first compound 1 µM) was 147%; the viability, T/C (second compound 0.0316 µM, first compound 3.16 µM) is 146%; the viability, T/C (second compound 0.0316 µM, first compound 10 µM) is 51%. In addition, the viability, T/C is, setting by setting: (second compound 0.1 µM, first compound 0.0316 µM) 114%; (second compound 0.1 µM, first compound 0.1 µM) 119%; (second compound 0.1 µM, first compound 0.316 µM) 166%; (second compound 0.1 µM, first compound 1 µM) 121%; (second compound 0.1 µM, first compound 3.16 µM) 112%; (second compound 0.1 µM, first compound 10 µM) 45%. The viability, T/C was 97.4% (second compound 0.316 µM, first compound 0.0316 µM); 115% (second compound 0.316 µM, first compound 0.1 µM); 119% (second compound 0.316 µM, first compound 0.316 µM); 120% (second compound 0.316 µM, first compound 1 µM); 120% (second compound 0.316 µM, first compound 3.16 µM); 44.8% (second compound 0.316 µM, first compound 10 µM). For the same molecule, the viability, T/C (second compound 1 µM, first compound 0.0316 µM) was 95.7%; the viability, T/C (second compound 1 µM, first compound 0.1 µM) was 125%; the viability, T/C (second compound 1 µM, first compound 0.316 µM) is 121%; the viability, T/C (second compound 1 µM, first compound 1 µM) is 148%; the viability, T/C (second compound 1 µM, first compound 3.16 µM) was 131%; the viability, T/C (second compound 1 µM, first compound 10 µM) is 48.2%. Besides, the viability, T/C runs as follows: (second compound 3.16 µM, first compound 0.0316 µM) 88.9%; (second compound 3.16 µM, first compound 0.1 µM) 108%; (second compound 3.16 µM, first compound 0.316 µM) 123%; (second compound 3.16 µM, first compound 1 µM) 151%; (second compound 3.16 µM, first compound 3.16 µM) 113%; (second compound 3.16 µM, first compound 10 µM) 51.4%. For the same molecule, the viability, T/C (second compound 10 µM, first compound 0.0316 µM) was 106%; the viability, T/C (second compound 10 µM, first compound 0.1 µM) is 109%; the viability, T/C (second compound 10 µM, first compound 0.316 µM) was 127%; the viability, T/C (second compound 10 µM, first compound 1 µM) was 146%; the viability, T/C (second compound 10 µM, first compound 3.16 µM) is 149%; the viability, T/C (second compound 10 µM, first compound 10 µM) is 42.1%.

As for `CCc1cc2c(N3CCc4c(cc(Cn5ccnc5)cc4-c4cn(C)nc4C(F)(F)F)C3=O)ccnc2c(OC)n1`, the viability, T/C is, setting by setting: (compound 0.0316 µM) 78.9% and 69.7% and 64.6%; (compound 0.1 µM) 56.2% and 71.7% and 57.9%; (compound 0.316 µM) 70.9% and 68.9% and 69.7%; (compound 1 µM) 61.2% and 62% and 60.9%; (compound 3.16 µM) 64.3% and 76.9% and 69.6%; (compound 10 µM) 57.7% and 50.2% and 58.4%. Further, where the note is “curve of compound”, the IC50 was over 10 µM.

As for `CC(C)n1c(=O)n(C)c2cnc3cc(F)c(-c4ccc(OCCCN5CCCCC5)nc4)cc3c21`, the viability, T/C by setting is: (compound 0.0316 µM) 75.1% and 94.3% and 79.1%; (compound 0.1 µM) 104% and 75.2% and 67.4%; (compound 0.316 µM) 103% and 102% and 65.2%; (compound 1 µM) 92.1% and 121% and 73.4%; (compound 3.16 µM) 113% and 120% and 72.1%; (compound 10 µM) 94.9% and 91.5% and 72.9%. Further, the IC50 (curve of compound) was over 10 µM.

Turning to `O=C(Nc1ccc(O)c(NS(=O)(=O)c2ccc(F)cc2)c1)c1ccc(-c2ccccc2)cc1`, the viability, T/C is, setting by setting: (compound 0.0316 µM) 105% and 85.8% and 92.8%; (compound 0.1 µM) 90.5% and 105% and 85.8%; (compound 0.316 µM) 76.6% and 90.5% and 111%; (compound 1 µM) 80.5% and 76.2% and 111%; (compound 3.16 µM) 103% and 84.1% and 91.1%; (compound 10 µM) 93.4% and 63.7% and 69.9%. Moreover, the IC50 (curve of compound) is over 10 µM.

On to `CCc1cc2c(N3CCc4c(cc(Cn5ccnc5)cc4-c4cn(C)nc4C(F)(F)F)C3=O)cc(C)nc2c(OC)n1`, for which the viability, T/C reads like this: (compound 0.0316 µM) 63.3% and 77.3% and 86.5%; (compound 0.1 µM) 98.4% and 69.4% and 64.3%; (compound 0.316 µM) 72.6% and 62.2% and 67.1%; (compound 1 µM) 65.5% and 59.4% and 67.5%; (compound 3.16 µM) 65.5% and 71.2% and 67.9%; (compound 10 µM) 57.6% and 57% and 58.1%. Also, the IC50 (curve of compound) is over 10 µM.

Turning to `COc1ccc([C@@H](O)c2cc(-c3ncnc4cc(N5CCOCC5)ccc34)c(F)cc2Cl)nn1`, the viability, T/C (compound 0.0316 µM) was 92.9% and 78.8% and 78%; the viability, T/C (compound 0.1 µM) is 81.3% and 85.4% and 74.1%; the viability, T/C (compound 0.316 µM) was 104% and 91.9% and 83.3%; the viability, T/C (compound 1 µM) is 67.2% and 91.9% and 95.6%; the viability, T/C (compound 3.16 µM) is 78% and 69.2% and 62.2%; the viability, T/C (compound 10 µM) is 36.1% and 31.2% and 33.4%. In addition, the 50% inhibitory concentration (IC50) (curve of compound) was 6.47 µM and 5.66 µM and 5.15 µM.
